Assay results published in EP4610269A1, “UROKINASE PLASMINOGEN ACTIVATOR SURFACE RECEPTOR (UPAR) LIGANDS FOR DIAGNOSTIC OR THERAPEUTIC USE” (3B Pharmaceuticals GmbH, priority 2024, dated 2025).
*1 amine or outer side, *2 acyl side, *3 side chain or, on linkers, in order; H or OH if unused. Where a SMILES comes first, the peptide text is derived from it. Bridges are numbered along the chain shown (N, C = ends). [ ]: non-standard residue; d: D form. The star is where a group is joined. DOTA = O=C(O)CN1CCN(CC(=O)O)CCN(CC(=O)*)CCN(CC(=O)O)CC1; 2Nal = N[C@@H](Cc1ccc2ccccc2c1)C(=O)O; Hyp = O=C(O)[C@@H]1C[C@@H](O)CN1; Pentanoyl(4-Me) = CC(C)CCC(=O)*; Cit = NC(=O)NCCC[C@H](N)C(=O)O; NMeOrn = CN[C@@H](CCCN)C(=O)O; Nle = CCCC[C@H](N)C(=O)O; Nva = CCC[C@H](N)C(=O)O; Pentanoyl = CCCCC(=O)*; CO = O=C([*:1])[*:2]; CH2 = C([*:1])[*:2]; NHBu = CCCCN*

Assays:
[1] = molecular target: T1, human uPAR (uPAR-Fc) (Homo sapiens, UniProt Q03405); experiment: Surface plasmon resonance (SPR) assay, single cycle kinetics; format: binding; details: pKD category for uPAR SPR activity assay; uPAR-Fc on Protein A-Chip, 25°C; read-out: pKD CAT (converted)
T1 construct: comprising amino acids Leu23-Arg303 according to UniProt entry Q03405.1; purchased R&D Systems 10378-UK-100
T1 sequence (Q03405 23-303): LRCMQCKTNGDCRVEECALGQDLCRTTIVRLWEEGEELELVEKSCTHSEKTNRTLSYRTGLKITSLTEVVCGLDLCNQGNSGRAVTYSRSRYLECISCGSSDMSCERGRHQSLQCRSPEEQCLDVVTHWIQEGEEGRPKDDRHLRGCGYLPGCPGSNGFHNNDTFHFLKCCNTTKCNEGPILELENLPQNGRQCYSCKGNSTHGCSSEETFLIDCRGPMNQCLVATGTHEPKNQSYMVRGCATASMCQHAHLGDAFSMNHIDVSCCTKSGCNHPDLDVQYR
Method: Surface plasmon resonance (SPR) is an optical technique used to measure molecular interactions in real time. SPR occur when plane-polarized light hits a metal film under total internal reflection conditions. SPR signal is directly dependent on the refractive index of the medium on the sensor chip. In an SPR experiment, one molecule (i.e. uPAR) is immobilized on a sensor chip and binding to a second molecule (i.e. test compounds) is measured under flow. The binding of the compound on the surface changes the refractive index. In responses the reflection angle changes as compounds bind and dissociate on the immobilized protein on the surface. This response is measured in resonance units (RU). The RUs are proportional to the number of molecules bound to the surface. […] Kinetic binding constants and equilibrium binding constants can be derived from the sensorgrams.
Surface plasmon resonance (SPR) studies were performed using a Biacore™ T200 or S200 SPR system (Cytiva, formerly GE Life Sciences) to assess binding of compounds to recombinant uPAR protein.
In this example recombinant protein comprising the extracellular domains of human uPAR (uPAR-Fc, R&D Systems, CAT 10378-UK-100, comprising amino acids Leu23-Arg303 according to UniProt entry Q03405.1 and Fc region of human IgG1 at the C-terminus) was immobilized on a Protein A-Chip (Cytiva, CAT 29127555) according to the supplier's instructions. uPAR-Fc was diluted in Running Buffer (10 mM HEPES, 150 mM NaCl, 50 µM EDTA, 0.1% DMSO, 0.05% Tween-20, pH 7.4) to a final concentration of 100 nM and then flushed over the Protein A-Chip to immobilized ~2000 RUs.
Stock solutions of test compounds were prepared by dissolving each compound in DMSO. DMSO stock solution were diluted 1: 1000 in Running Buffer without DMSO. Further sequential dilutions were made with Running Buffer containing 0.1% DMSO. SPR binding analyses were performed in Single Cycle Kinetic (SCK) mode at 25°C. Flow cell without immobilized uPAR-Fc served as reference flow cell. The chip was regenerated with 10 mM Glycine, pH 1,5 to remove the uPAR-Fc from the chip surface after each SCK run. After every three SCK measurements, a blank run with Running Buffer instead of test compound was included to correct for baseline drifts (double reference substraction method). Table 11: SPR protocol steps for SCK with uPAR-Fc immobilized on a Protein A-Chip.
For each test compound, SPR raw data sensorgrams were recorded using the Biacore™ T200 or S200 control software. Sensorgrams were processed and analyzed with the Biacore™ Insight Evaluation software. […] The reference subtracted sensorgram for each test compound was further corrected for baseline drift by subtracting the sensorgram of a reference subtracted blank run (Running Buffer only). The dissociation constant (KD) was calculated from the double reference subtracted sensorgrams using the 1:1 Langmuir binding model. The pKD value (negative decadic logarithm of dissociation constant) was calculated using Microsoft Excel.

[2] = molecular target: T2, uPAR-expressing HEC-265 human endometrial adenocarcinoma cells (Homo sapiens, UniProt Q03405); experiment: Competitive FACS binding assay; details: pIC50 category of FACS binding
T2 construct: Cell surface uPAR-expressing HEC-265 human endometrial adenocarcinoma cells; host or cells: HEC-265
T2 sequence (Q03405 23-335): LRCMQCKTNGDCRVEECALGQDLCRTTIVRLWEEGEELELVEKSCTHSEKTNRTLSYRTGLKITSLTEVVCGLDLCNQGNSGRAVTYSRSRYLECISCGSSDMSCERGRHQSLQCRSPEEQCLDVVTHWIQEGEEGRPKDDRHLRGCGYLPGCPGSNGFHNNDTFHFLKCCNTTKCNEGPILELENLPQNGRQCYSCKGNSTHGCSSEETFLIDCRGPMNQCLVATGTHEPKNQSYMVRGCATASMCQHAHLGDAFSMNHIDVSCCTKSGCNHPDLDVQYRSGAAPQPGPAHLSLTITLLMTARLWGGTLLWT
Method: In order to determine binding of compounds according to the present invention to uPAR-expressing cells, a competitive FACS binding assay was established.
Cell surface uPAR-expressing HEC-265 human endometrial adenocarcinoma cells (Japanese Collection of Research Bioresources, #JCRB1142) were cultured in MEM Eagle with stable glutamine (Pan Biotech, #P04-09500) including 15% fetal bovine serum (Pan Biotech, #P30-3306) and 100 U/ml penicillin and 100 µg/mL streptomycin (Pan Biotech, #P06-07100). Cells were detached with Cell Dissociation Buffer (Thermo Scientific, #13151014) and washed in FACS buffer (PBS (Pan Biotech, #P04-36500) including 1% BSA (SeraCare, #AP-4510-80). Cells were diluted in FACS buffer to a final concentration of 500.000 cells per ml and 200 µl of the cell suspension are transferred to a u-shaped non-binding 96-well plate (Greiner Bio-One, #650901).
For IC50 determination, cells were incubated with 10 nM Bio--Ttds--Ttds--Ttds--Ttds-D-Cha-FsrYLWS-NH2) in the presence of increasing concentrations of non-labeled test compounds at 4°C for 1 hour. Cells were washed twice in FACS buffer. An additional incubation step with 1 µg/mL APC-Streptavidin (Miltenyi; #130-106-791) in 50 µL FACS buffer for 30 minutes on ice was performed followed by two washes with FACS buffer. Cells were resuspended in 200 µl FACS buffer and analyzed in an Attune NxT flow cytometer. Median fluorescence intensities (APC channel) were calculated by Attune NxT software and plotted against peptide concentrations. Four parameter logistic (4PL) curve fitting and pIC50 calculations were performed using ActivityBase software.

SMILES | Kd [1] [nM] | IC50 [2] [nM]
CCCCC(=O)N[C@H]1CSCSC[C@@H](C(N)=O)NC(=O)[C@H](CCC)NC(=O)[C@H]([C@@H](C)CC)NC(=O)[C@@H]2C[C@@H](O)CN2C(=O)[C@@H]2CCCN2C(=O)[C@H](Cc2ccccc2)NC(=O)[C@H](Cc2ccc(O)cc2)NC(=O)[C@H](CCC(N)=O)NC(=O)[C@H](CCCNC(N)=O)NC1=O [UPAR-215, Pent-[Smc-Cit-Gln-Tyr-Phe-Pro-Hyp-Ile-Nva-Cys]-NH2] (Pentanoyl-C[Cit]QYFP[Hyp]I[Nva]C-NH2; linker 1-10 via CH2) | 1.58 to 10 | 12.6 to 31.6
CC[C@H](C)[C@@H]1NC(=O)[C@@H](C)NC(=O)[C@@H]2CCCN2C(=O)[C@H](Cc2ccccc2)NC(=O)[C@H](Cc2ccc(O)cc2)NC(=O)[C@H](CCCCNC(=O)CN2CCN(CC(=O)O)CCN(CC(=O)O)CCN(CC(=O)O)CC2)NC(=O)[C@H](CCCNC(=N)N)NC(=O)[C@@H](NC(=O)[C@H](CC(C)C)NC(C)=O)CSSC[C@@H](C(N)=O)NC(=O)[C@H](CC(C)C)NC1=O [UPAR-162, Ac-Leu-[Cys-Arg-Lys(DOTA)-Tyr-Phe-Pro-ala-Ile-Leu-Cys]-NH2] (Ac-LCRK(DOTA)YFP[dA]ILC-NH2; disulfide 2-11) | < 1.58 | ≤ 10
CCCCC(=O)N[C@H]1CSSC[C@@H](C(N)=O)NC(=O)[C@H](CCC)NC(=O)[C@H]([C@@H](C)CC)NC(=O)[C@H](CCCN)N(C)C(=O)[C@@H]2CCCN2C(=O)[C@H](Cc2ccccc2)NC(=O)[C@H](Cc2ccc(O)cc2)NC(=O)[C@H](CCCCNC(=O)CN2CCN(CC(=O)O)CCN(CC(=O)O)CCN(CC(=O)O)CC2)NC(=O)[C@H](CCCNC(N)=O)NC1=O [UPAR-265, Pent-[Cys-Cit-Lys(DOTA)-Tyr-Phe-Pro-Nmo-Ile-Nva-Cys]-NH2] (Pentanoyl-C[Cit]K(DOTA)YFP[NMeOrn]I[Nva]C-NH2; disulfide 1-10) | > 100 | 39.8 to 100
CC[C@H](C)[C@@H]1NC(=O)[C@@H](C)NC(=O)[C@@H]2CCCN2C(=O)[C@H](Cc2ccc3ccccc3c2)NC(=O)[C@H](Cc2ccc(O)cc2)NC(=O)[C@H](CCC(N)=O)NC(=O)[C@H](CCCNC(N)=O)NC(=O)[C@@H](NC(=O)CCC(C)C)CSSC[C@@H](C(N)=O)NC(=O)[C@H](CC(C)C)NC1=O [UPAR-147, iHex-[Cys-Cit-Gln-Tyr-2Ni-Pro-ala-Ile-Leu-Cys]-NH2] ({Pentanoyl(4-Me)}-C[Cit]QY[2Nal]P[dA]ILC-NH2; disulfide 1-10) | 10 to 100 | 12.6 to 31.6

Continued, values first:

Kd [1] [nM] | IC50 [2] [nM] | SMILES
> 100 | ≥ 126 | CC[C@H](C)[C@@H]1NC(=O)[C@H]2CCCN2C(=O)[C@@H]2CCCN2C(=O)[C@H](Cc2ccccc2)NC(=O)[C@H](Cc2ccc(O)cc2)NC(=O)[C@H](CCC(N)=O)NC(=O)[C@H](CCCNC(N)=O)NC(=O)[C@@H](NC(=O)CCC(C)C)CSSC[C@@H](C(N)=O)NC(=O)[C@H](CC(C)C)NC1=O [UPAR-305, iHex-[Cys-Cit-Gln-Tyr-Phe-Pro-pro-Ile-Leu-Cys]-NH2] ({Pentanoyl(4-Me)}-C[Cit]QYFP[dP]ILC-NH2; disulfide 1-10)
< 1.58 | ≤ 10 | CCCCNC(=O)N[C@H]1CSSC[C@@H](C(N)=O)NC(=O)[C@H](CC(C)C)NC(=O)[C@H]([C@@H](C)CC)NC(=O)[C@@H](C)NC(=O)[C@@H]2CCCN2C(=O)[C@H](Cc2ccccc2)NC(=O)[C@H](Cc2ccc(O)cc2)NC(=O)[C@H](CCC(N)=O)NC(=O)[C@H](CCCNC(N)=O)NC1=O [UPAR-286, nBuCAyl-[Cys-Cit-Gln-Tyr-Phe-Pro-ala-Ile-Leu-Cys]-NH2] ({NHBu-CO}-C[Cit]QYFP[dA]ILC-NH2; disulfide 1-10)
< 1.58 | ≤ 10 | CCCC[C@@H]1NC(=O)[C@H](CCCNC(=N)N)NC(=O)[C@@H](NC(=O)[C@H](CC(C)C)NC(=O)[C@H](CC(=O)O)NC(C)=O)CSSC[C@@H](C(N)=O)NC(=O)[C@H](CC(C)C)NC(=O)[C@H]([C@@H](C)CC)NC(=O)[C@H](C)NC(=O)[C@@H]2CCCN2C(=O)[C@H](Cc2ccccc2)NC(=O)[C@H](Cc2ccc(O)cc2)NC1=O [UPAR-270, Ac-Asp-Leu-[Cys-Arg-Nle-Tyr-Phe-Pro-Ala-Ile-Leu-Cys]-NH2] (Ac-DLCR[Nle]YFPAILC-NH2; disulfide 3-12)
